In patent US20250268902A1, “THERAPEUTIC METHODS” (CeleCor Therapeutics, Inc., priority 2021, published 2025):
Read-outs that look alike come from different tables or passages of the source.

Assays:
[1] = system: PAR1/PAR4-induced platelet aggregation (BASE Channel); test: VerifyNow P2Y12 assay BASE channel platelet inhibition in STEMI patients (CEL-02 trial); assay type: in vivo, human; conditions: for inhibition at 0.075 mg/kg / inhibition at 0.09 mg/kg / inhibition at 0.11 mg/kg: Homo sapiens, Platelet; for inhibition at 0.075 mg/kg: 0.075 mg/kg SC; for inhibition at 0.09 mg/kg: 0.090 mg/kg SC; for inhibition at 0.11 mg/kg: 0.11 mg/kg SC
Text: The open-label, dose escalating, phase 2, CEL-02 trial set out to assess the pharmacodynamics (PD), pharmacokinetics (PK), safety and tolerability of RUC-4 in STEMI patients treated with aspirin and ticagrelor in the ambulance undergoing primary percutaneous coronary intervention (pPCI). STEMI patients presenting for pPCI at the St. Antonius Hospital Nieuwegein, the Netherlands, received a single, weight-adjusted, subcutaneous injection of RUC-4 before coronary angiography. After assessment of every 8 evaluable patients, the dose was escalated to reach an optimal dose for platelet inhibition. All patients were concomitantly treated with aspirin, ticagrelor and unfractionated heparin (UFH)(5000 IU) in the ambulance. Additional UFH during PCI was only administered when ACT was <200 seconds (2500-5000 IU). Blood samples for (PD) and (PK) were taken before RUC-4 administration, and 15, 45, 60, 90, 120, 180, and 240 minutes thereafter. Platelet inhibition was measured by the VerifyNow P2Y12 assay BASE channel which uses a protease activated receptor-1 (PAR-1) peptide (iso-TRAP) and a PAR-4 activating peptide as agonists, overriding platelet inhibition by oral P2Y12 inhibitors.

[2] = system: agglutination of fibrinogen-coated beads by activated platelets; test: VerifyNow ADP+PGE1, iso-TRAP and base channel assays; assay type: cell-based
Description: VerifyNow (VN) assays (Instrumentation Laboratories, Bedford, MA) are whole-blood, cartridge-based, and automated, and produce results within 15 minutes of blood draw. They are based on the agglutination of fibrinogen-coated beads by platelets activated by different agonists. Commercially available VN assays are designed to study the antiplatelet effects of aspirin (VN Aspirin cartridge; arachidonic acid activator) or P2Y12 antagonists (VN PRUTest cartridge and VN P2Y12 cartridge; ADP+PGE1 activator/inhibitor combination). The modified thrombin receptor activating peptide (iso-TRAP) is included in a separate reaction chamber (in addition to the ADP+PGE1 reaction chamber) in both the PRUTest and P2Y12 cartridges, and the P2Y12 cartridges further include a ‘BASE channel’ reaction chamber in which a PAR-1 activating peptide (iso-TRAP) at higher concentrations is combined with a PAR-4 activating peptide (PAR-4 AP) to achieve potent activation that can overcome the effects of P2Y12 antagonists.
VerifyNow ADP+PGE1, iso-TRAP, and base channel assays may be used to report Compound (1)-mediated inhibition in near real-time. VN assays can be used to help deconvolute antiplatelet effects of αIIbβ3 antagonists versus P2Y12 antagonists. […] The BASE channel assay was used to monitor the pharmacodynamic effects of Compound (1) independent of any P2Y12 inhibitors.

platelet aggregation = test: Light transmission aggregometry (LTA) with activators ADP, iso-TRAP, arachidonic acid; assay type: cell-based
Text: Light transmission aggregometry (LTA) is considered the gold standard assay to assess the potency of antiplatelet agents, such as Compound (I), because of its association with clinical outcomes.

[3] = system: platelet aggregation to adenosine diphosphate (ADP; 20 μM); test: Inhibition of platelet aggregation (IPA) to ADP (20 μM) after SC injection in healthy volunteers and stable CAD patients on aspirin; assay type: in vivo, human; conditions: for mean±SD IPA / IPA: 15 minutes after injection; for IPA: stable CAD patients on aspirin
Description: Sequentially, healthy volunteers (HV) and then patients with stable coronary disease (CAD) receiving aspirin received escalating doses of RUC-4 or placebo in a sentinel dose, randomized, blinded fashion. Inhibition of platelet aggregation (IPA) to adenosine diphosphate (ADP; 20 μM), RUC-4 blood levels, laboratory evaluations, and clinical assessments were made through 24 hours and at 7 days. Doses were increased until a dose that produced ≥80% IPA within 15 minutes, with return toward baseline within 4 hours was achieved. VerifyNow (VN) was also measured in a subset of patients with stable CAD.

[4] = system: platelets in whole blood (VN isoTRAP and ADP+PGE1 channels); test: In vitro VerifyNow IIb/IIIa and PRU cartridges in whole blood from healthy volunteers; assay type: cell-based, human; conditions: 30-900 nM, 10 minutes at room temperature
Description: Whole blood anticoagulated with either sodium citrate (0.32%) or PPACK ([…]) from healthy volunteers who were either taking or not taking daily aspirin was treated in vitro with Compound (I) (RUC-4) to achieve final whole blood concentrations between 30 and 900 nM. Blood was incubated for 10 minutes at room temperature and then tested with either the IIb/IIIa or PRU cartridge.

NCC(=O)Nc1cncc(-c2nn3c(=O)cc(N4CCNCC4)nc3s2)c1 [RUC-4]
inhibition at 0.075 mg/kg ([1]; 0.25 h, 15 minutes post-dose, n=8, with aspirin, ticagrelor, UFH, read-out: maximal platelet inhibition, mean [SD]): 83.7%
inhibition at 0.09 mg/kg ([1]; 0.25 h, 15 minutes post-dose, n=9, with aspirin, ticagrelor, UFH, read-out: maximal platelet inhibition, mean [SD]): 89.6%
inhibition at 0.11 mg/kg ([1]; 0.25 h, 15 minutes post-dose, n=10, with aspirin, ticagrelor, UFH, read-out: maximal platelet inhibition, mean [SD]): 92.5%
inhibition at 0.075 mg/kg ([1]; 2 h, 120 minutes post-dose, n=8, read-out: platelet inhibition, mean (SD)): 17.9%
inhibition at 0.09 mg/kg ([1]; 2 h, 120 minutes post-dose, n=9, read-out: platelet inhibition, mean (SD)): 22.6%
inhibition at 0.11 mg/kg ([1]; 2 h, 120 minutes post-dose, n=10, read-out: platelet inhibition, mean (SD)): 31.6%
time to maximal platelet function inhibition ([1]; single-dose subcutaneous): ≤ 15 min
time to return of platelet function ([1]; single-dose subcutaneous): ≤ 120 min
inhibition of VN ADP+PGE1 assay [2]: dramatically inhibits
inhibition of VN base channel assay [2]: dramatically inhibits
inhibition of VN iso-TRAP assay [2]: dramatically inhibits
inhibition of AA (arachidonic acid) induced LTA (platelet aggregation): dramatically inhibits
inhibition of ADP induced LTA (platelet aggregation): dramatically inhibits
mean±SD IPA ([3]; healthy volunteers, 0.05 mg/kg SC, n=6): 71.8±15.0%
mean±SD IPA ([3]; healthy volunteers, 0.075 mg/kg SC, n=6): 84.7±16.7%
time over which IPA diminished ([3]; healthy volunteers, in all cases, after SC injection): 90 to 120 min
IPA ([3]; 0.04 mg/kg SC, n=2): 53.6±17.0%
IPA ([3]; 0.05 mg/kg SC, n=6): 76.9±10.6%
IPA ([3]; 0.075 mg/kg SC, n=18): 88.9±12.7%
inhibition of the VN isoTRAP channels ([4]; IIb/IIIa and PRU cartridges): dose-dependent inhibition
inhibition of the VN ADP+PGE1 channel ([4]; PRU cartridge): dose-dependent inhibition

CCCSc1nc(N[C@@H]2C[C@H]2c2ccc(F)c(F)c2)c2nnn([C@@H]3C[C@H](OCCO)[C@@H](O)[C@H]3O)c2n1 [ticagrelor]
inhibition of VN ADP+PGE1 assay [2]: dramatically inhibits
inhibition of VN base channel assay [2]: does not inhibit
inhibition of VN iso-TRAP assay [2]: slightly inhibits
inhibition of iso-TRAP induced LTA (platelet aggregation): slightly inhibits

CC(=O)Oc1ccccc1C(=O)O [aspirin]
inhibition of VN ADP+PGE1 assay [2]: does not inhibit
inhibition of VN base channel assay [2]: does not inhibit
inhibition of VN iso-TRAP assay [2]: does not inhibit
inhibition of ADP induced LTA (platelet aggregation): does not significantly inhibit
inhibition of iso-TRAP induced LTA (platelet aggregation): does not significantly inhibit
effect of aspirin on IPA ([3]; subjects given RUC-4 SC): did not affect
effect of aspirin on RUC-4 blood levels ([3]; subjects given RUC-4 SC): did not affect
